Read-outs that look alike come from different tables or passages of the source.
How the values were obtained:
AdV6 = experiment: Therapeutic efficacy against intravenous AdV6 in immunosuppressed male Syrian hamsters; details: for serum transaminase (ALT) levels (FIG. 7) / virus burden in the liver (FIG. 8): 5 days post challenge; for mortality / survival (FIG. 6A): AdV6-infected hamsters
Protocol: Four dose levels were tested: 10, 30, 60 and 100 mg/kg p.o. q.d. The highest dose was determined based on rat toxicology data.
All hamsters were immunosuppressed using cyclophosphamide (CP). CP was administered intraperitoneally at a dose of 140 mg/kg, and then twice weekly at a dose of 100 mg/kg.
Filociclovir, in powdered form, was suspended in 0.4% carboxymethyl cellulose (Sigma C5678, Lot #SLBS7273) at 1, 3, 6, and 10 mg/ml and sonicated to visual homogeneity and aliquots stored at 4° C. Aliquots were allowed to equilibrate to room temperature before dosing. Hamsters weighing approximately 100 g were dosed with a 1 ml volume of the appropriate suspension for the 10, 30, 60, and 100 mg/kg dose levels.
The hamsters were divided into 8 groups, 15 hamsters/group, (with the exception of Group 2, which had only 5 hamsters; see Table 3), immunosuppressed, and then injected i.v. with vehicle (Groups 1-2) or 2×10^10 PFU/kg of AdV6 (Groups […]). Groups 1 and 3 received drug vehicle (p.o. q.d.), Group 4 received 10 mg/kg filociclovir (p.o. q.d.), Group 5 received 30 mg/kg filociclovir (p.o. q.d.), Group 6 received 60 mg/kg filociclovir (p.o. q.d.), Groups 2 and 7 received 100 mg/kg filociclovir (p.o. q.d.), and Group 8 received cidofovir (20 mg/kg, 3 times weekly). For all groups, drug administration started 1 day before challenge, and continued according to the schedule above for the duration of the study.
The body weights and any signs of morbidity of the animals were recorded daily. At 5 days post challenge, 5 hamsters (designated at the start of the experiment) from each group (with the exception of Group 2) were sacrificed, and gross pathological observation was performed. Serum and liver samples were collected and the virus burden in liver was determined by a TCID50 assay, and the serum was analyzed for transaminase levels. The remaining 10 hamsters were sacrificed at 14 days post challenge. Hamsters that became visually moribund before Day 14 were sacrificed as needed. In addition to the hamsters observed to be moribund, all hamsters that lost more than 20% of their original body weight were also sacrificed. For the hamsters sacrificed at the conclusion of the experiment and those sacrificed as moribund, serum and liver tissues were collected and banked for possible determination of serum transaminase levels and virus burden in the liver. Liver tissue was preserved in formalin for possible histopathological examination.
As such, there were two endpoints for the study: One, collected from ten animals, was survival and body weight gain/loss (with the option of assaying virus burden in the liver and serum transaminase levels). The other, collected from 5 animals for the Day 5 time point, was virus burden in the liver and serum transaminase levels.

AdV4 = experiment: Plaque reduction antiviral IC50 assay in A549, AdV4; type: cell-based, adenovirus 4; details: Human mastadenovirus E
Protocol: (§1) The effectiveness of filociclovir to inhibit a number of adenovirus strains associated with conjunctivitis were tested in an in vitro assay. To determine the in vitro IC50 concentrations, i.e., the concentration of filociclovir that inhibits adenovirus plaque formation by 50%, filociclovir and cidofovir (CDV) were tested against a panel of 7 ocular types of adenovirus.
(§2) 42 A549 24-well multiplates (1 per each drug and each virus strain) were prepared. 7 adenovirus serotypes were tested at a time. Virus dilutions from known titer of stock viruses (approx. 100 PFU/0.1 ml) were prepared with AdV3 L, AdV4 H, AdV5 M, AdV7a J, AdV8 E, AdV 19/64 K, and AdV37 ATCC. 0.1 ml (containing approx. 100 PFU) of each of the 7 viruses were plated onto all 24 wells of an A549 multiplate and incubated at 37° C. in a 5% CO2 water-vapor atmosphere for 3 hours.
(§3) Dilutions of filociclovir and cidofovir were prepared at 400, 40, 4.0, 0.4, 0.04, and 0.004 μM in 2× nutrient tissue culture media, following the dilution protocol: 7.5 ml of each of filociclovir and cidofovir dilution was added to a tube and 22.5 ml of methylcellulose in outgrowth medium (OG) was then added to each tube. 1 ml of each filociclovir and cidofovir dilutions was added to an additional 15 ml tube and 3 ml of OG was added to each tube. This was the overlay for the Adv8 plates. Normal methylcellulose overlay medium without any drug was used for the control wells for each plate.
(§4) For each virus plate, 3 wells were overlaid with each of the 6 final filociclovir and cidofovir concentrations (100, 10, 1.0, 0.1, 0.01, and 0.001 μM) and 6 wells with the control media. Plates were incubated at 37° C. in a 5% CO2 water-vapor atmosphere until plaques were visible. When plaques became visible, plates were stained with gentian violet and plaques were counted at 25λ using a dissecting microscope. The IC50 concentrations were determined from Fitted Line Plot regression analysis using Minitab. All assays were performed in triplicate.

AdV5 = experiment: Plaque reduction antiviral IC50 assay in A549, AdV5; type: cell-based, adenovirus 5; details: Human mastadenovirus C
Protocol: as §1, §2, §3, §4

AdV8 = experiment: Plaque reduction antiviral IC50 assay in A549, AdV8; type: cell-based, adenovirus 8
Protocol: as §1, §2, §3, §4

AdV64 = experiment: Plaque reduction antiviral IC50 assay in A549, AdV64; type: cell-based, adenovirus 19/64; details: unidentified adenovirus
Protocol: as §1, §2, §3, §4

[1] = system: panel of ocular adenovirus types (Ad3, Ad4, Ad5, Ad7a, Ad8, Ad19/64, and Ad37); experiment: Plaque reduction antiviral IC50 assay, whole panel of ocular adenovirus types; type: cell-based, adenovirus Species B, C, D, and E; details: unidentified adenovirus
Protocol: as §1, §2, §3, §4

[2] = read-out: mean IC50 concentrations across the panel (upper bound)
[3] = read-out: range of mean IC50 concentrations across the panel

Nc1ccn(C[C@@H](CO)OCP(=O)(O)O)c(=O)n1 [CDV, cidofovir, reference compound]
serum transaminase (ALT) levels (FIG. 7) (AdV6; 20 mg/kg i.p. 3x weekly): none of the filociclovir- or CDV-treated animals had elevated serum transaminase levels | virus burden in the liver (FIG. 8) (AdV6; 20 mg/kg i.p. 3x weekly): very low to nonquantifiable levels | IC50 (AdV4; read-out: Mean IC50): 8.71 µM | IC50 (AdV4; read-out: Median IC50): 9.43 µM | IC50 (AdV5; read-out: Mean IC50): 30.3 µM | IC50 (AdV5; read-out: Median IC50): 38.8 µM | IC50 (AdV8; read-out: Mean IC50): 0.487 µM | IC50 (AdV8; read-out: Median IC50): 0.474 µM | IC50 (AdV64; read-out: Mean IC50): 4.09 µM | IC50 (AdV64; read-out: Median IC50): 4.94 µM | IC50 [1, 2]: < 31 µM | IC50 [1, 3]: 0.487 to 30.3 µM

Nc1nc2c(ncn2/C=C2/CC2(CO)CO)c(=O)[nH]1 [Filociclovir, 2-amino-9-{(Z)-[2,2-bis(hydroxymethyl)cyclopropylidene]methyl}-3,9-dihydro-6H-purin-6-one]
body weight loss (FIG. 6B) (AdV6; 10 mg/kg p.o. q.d.): reversed | mortality / survival (FIG. 6A) (AdV6; 10 mg/kg p.o. q.d.): prevented mortality | body weight loss (FIG. 6B) (AdV6; 30 mg/kg p.o. q.d.): reversed | mortality / survival (FIG. 6A) (AdV6; 30 mg/kg p.o. q.d.): prevented mortality | toxicity for AdV6-infected hamsters (AdV6; 60 mg/kg p.o. q.d.): toxic | toxicity for AdV6-infected hamsters (AdV6; 100 mg/kg p.o. q.d.): toxic | virus burden in the liver (FIG. 8) (AdV6; 10 mg/kg p.o. q.d.): one animal in the AdV6+10 mg/kg filociclovir group with a very low liver virus burden | virus burden in the liver (FIG. 8) (AdV6; 30 mg/kg p.o. q.d.): nondetectable level | serum transaminase (ALT) levels (FIG. 7) (AdV6; filociclovir-treated animals): none of the filociclovir- or CDV-treated animals had elevated serum transaminase levels | necropsy finding at day 5 sacrifice (AdV6; AdV6+60 mg/kg p.o. q.d.): extensive kidney pathology | necropsy finding at day 5 sacrifice (AdV6; AdV6+100 mg/kg p.o. q.d.): extensive kidney pathology | IC50 (AdV4; read-out: Mean IC50): 4.31 µM | IC50 (AdV4; read-out: Median IC50): 4.24 µM | IC50 (AdV5; read-out: Mean IC50): 4.68 µM | IC50 (AdV5; read-out: Median IC50): 4.62 µM | IC50 (AdV8; read-out: Mean IC50): 0.496 µM | IC50 (AdV8; read-out: Median IC50): 0.485 µM | IC50 (AdV64; read-out: Mean IC50): 1.86 µM | IC50 (AdV64; read-out: Median IC50): 0.424 µM | IC50 [1, 2]: < 5 µM | IC50 [1, 3]: 0.496 to 4.68 µM
